Results as given in PubChem BioAssay AID248 (DTP/NCI, 2004).
Where “and” joins values, the source holds several entries; their conditions need not be identical. Identical values can stand only once. Inconclusive results and toxic doses are left out. Rule as the data show it: active = T/C of 150% or more; inactive = T/C below 125%. Peptide text beside a SMILES is read from it. * marks the point of attachment. Cbz = O=C(OCc1ccccc1)*

System: L1210 leukemia ip in BDF1 mice, survival T/C
Experiment: NCI In Vivo Anticancer Drug Screen. Data for tumor model L1210 Leukemia (intraperitoneal) in B6D2F1 (BDF1) mice
Settings: endpoint: mean survival time, higher = longer survival
Summary of the method: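 Tumor cells were implanted, animals were treated, and survival was followed. The result divides the treated measurement by the vehicle-control measurement.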

[1] = dose: 25.0 mg/kg/injection, schedule: Q01DX009 (ip), vehicle: saline with Tween-80
[2] = dose: 50.0 mg/kg/injection, schedule: Q01DX009 (ip), vehicle: saline with Tween-80
[3] = dose: 100.0 mg/kg/injection, schedule: Q01DX009 (ip), vehicle: saline with Tween-80
[4] = dose: 100.0 mg/kg/injection, schedule: Q04DX003 (ip), vehicle: saline
[5] = dose: 200.0 mg/kg/injection, schedule: Q01DX009 (ip), vehicle: saline with Tween-80
[6] = dose: 200.0 mg/kg/injection, schedule: Q04DX003 (ip), vehicle: saline
[7] = dose: 400.0 mg/kg/injection, schedule: Q01DX009 (ip), vehicle: saline with Tween-80
[8] = dose: 400.0 mg/kg/injection, schedule: Q04DX003 (ip), vehicle: saline
[9] = dose: 100.0 mg/kg/injection, schedule: Q01DX001 (ip), vehicle: saline
[10] = dose: 200.0 mg/kg/injection, schedule: Q01DX001 (ip), vehicle: saline
[11] = dose: 400.0 mg/kg/injection, schedule: Q01DX001 (ip), vehicle: saline
[12] = dose: 100.0 mg/kg/injection, schedule: Q04DX003 (ip), vehicle: saline with Tween-80
[13] = dose: 200.0 mg/kg/injection, schedule: Q04DX003 (ip), vehicle: saline with Tween-80
[14] = dose: 400.0 mg/kg/injection, schedule: Q04DX003 (ip), vehicle: saline with Tween-80
[15] = dose: 100.0 mg/kg/injection, schedule: Q01DX001 (ip), vehicle: carboxymethylcellulose (CMC)
[16] = dose: 200.0 mg/kg/injection, schedule: Q01DX001 (ip), vehicle: carboxymethylcellulose (CMC)
[17] = dose: 100.0 mg/kg/injection, schedule: Q04DX003 (ip), vehicle: Klucel (hydroxypropylcellulose) (HPC)
[18] = dose: 200.0 mg/kg/injection, schedule: Q04DX003 (ip), vehicle: Klucel (hydroxypropylcellulose) (HPC)
[19] = dose: 400.0 mg/kg/injection, schedule: Q04DX003 (ip), vehicle: Klucel (hydroxypropylcellulose) (HPC)
[20] = dose: 50.0 mg/kg/injection, schedule: Q01DX001 (ip), vehicle: saline

Measured: T/C

COc1ccc(/C=N/NC(=O)CNC(=O)c2ccccc2)cc1
inactive: [1] 93 % of control | [2] 95 % of control | [3] 91 % of control

O=C1CC(NC(=O)OCc2ccccc2)C(=O)O1 (configuration not stated)
inactive: [3] 96 % of control | [4] 103 % of control | [5] 93 % of control | [6] 97 % of control | [7] 94 % of control | [8] 95 % of control

COC(=O)C(CC(C)C)NC(=O)C(CC(N)=O)NC(=O)C(NC(=O)OCc1ccccc1)C(C)C (stereo not drawn) (Cbz-Val-Asn-Leu-OMe; configuration not given here)
inactive: [9] 95 % of control | [10] 91 % of control | [11] 91 % of control

Cc1n[nH]c(=S)n1N
inactive: [12] 115 % of control | [13] 102 % of control | [14] 96 % of control

CCCC1OCC(C)C(C)O1 (configuration not stated)
inactive: dose: 50.0 mg/kg/injection, schedule: Q01DX009 (ip), vehicle: acetone 101 % of control | dose: 100.0 mg/kg/injection, schedule: Q01DX009 (ip), vehicle: acetone 98 % of control | dose: 100.0 mg/kg/injection, schedule: Q04DX003 (ip), vehicle: acetone 106 % of control | dose: 200.0 mg/kg/injection, schedule: Q01DX009 (ip), vehicle: acetone 112 % of control | dose: 200.0 mg/kg/injection, schedule: Q04DX003 (ip), vehicle: acetone 109 % of control | dose: 400.0 mg/kg/injection, schedule: Q04DX003 (ip), vehicle: acetone 123 % of control

O=C1c2ccc(Br)cc2-c2cc(Br)c([N+](=O)[O-])cc21
inactive: [15] 98 % of control | [16] 98 % of control | dose: 400.0 mg/kg/injection, schedule: Q01DX001 (ip), vehicle: carboxymethylcellulose (CMC) 113 % of control

COC(=O)C1C(O)C(C)C(O)C(C)C=C(C)C2=C3C(=C(C)C(=O)c4c(O)c(c(C)c(OC(C)=O)c43)NC(=O)C(C)=C/C=C\C(C)C(O)C(C)C1O)OCO2 (configuration not stated)
inactive: dose: 20.0 mg/kg/injection, schedule: Q01DX009 (ip), vehicle: saline 105 % of control | dose: 40.0 mg/kg/injection, schedule: Q01DX009 (ip), vehicle: saline 100 % of control | dose: 80.0 mg/kg/injection, schedule: Q01DX009 (ip), vehicle: saline 102 % of control | dose: 100.0 mg/kg/injection, schedule: Q04DX002 (ip), vehicle: Klucel (hydroxypropylcellulose) (HPC) 96 % of control | dose: 160.0 mg/kg/injection, schedule: Q01DX009 (ip), vehicle: saline 107 % of control | dose: 200.0 mg/kg/injection, schedule: Q04DX002 (ip), vehicle: Klucel (hydroxypropylcellulose) (HPC) 90 % of control

CCC(C#N)c1ccccc1 (configuration not stated)
inactive: dose: 100.0 mg/kg/injection, schedule: Q01DX009 (ip), vehicle: Klucel (hydroxypropylcellulose) (HPC) 103 % of control | [17] 110 % of control | dose: 200.0 mg/kg/injection, schedule: Q01DX009 (ip), vehicle: Klucel (hydroxypropylcellulose) (HPC) 92 % of control | [18] 119 % of control | dose: 400.0 mg/kg/injection, schedule: Q01DX009 (ip), vehicle: Klucel (hydroxypropylcellulose) (HPC) 103 % of control | [19] 96 % of control

CC1CCCC2=[N+]1CCCC2 (configuration not stated)
inactive: dose: 50.0 mg/kg/injection, schedule: Q01DX001 (ip), vehicle: carboxymethylcellulose (CMC) 96 % of control | [15] 96 % of control | [16] 93 % of control

CCCC#CC(=O)OCC
inactive: dose: 100.0 mg/kg/injection, schedule: Q04DX002 (ip), vehicle: saline 91 % of control | dose: 200.0 mg/kg/injection, schedule: Q04DX002 (ip), vehicle: saline 97 % of control | dose: 400.0 mg/kg/injection, schedule: Q04DX002 (ip), vehicle: saline 89 % of control

CCOC(=O)C(=CNc1cnc(SC)[nH]c1=O)C(=O)OCC
inactive: [4] 91 % of control | [6] 93 % of control | [8] 89 % of control

c1ccc(-c2nnc(-c3ccccn3)nc2-c2ccccc2)cc1
inactive: [12] 95 % of control | [13] 104 % of control | [14] 112 % of control

C/C(=C/c1c(C)cc(C)c(NC(=O)c2ccc([N+](=O)[O-])cc2)c1C)CBr
inactive: dose: 100.0 mg/kg/injection, schedule: Q01DX001 (ip), vehicle: Klucel (hydroxypropylcellulose) (HPC) 93 % of control | [17] 97 % of control | dose: 200.0 mg/kg/injection, schedule: Q01DX001 (ip), vehicle: Klucel (hydroxypropylcellulose) (HPC) 102 % of control | [18] 92 % of control | dose: 400.0 mg/kg/injection, schedule: Q01DX001 (ip), vehicle: Klucel (hydroxypropylcellulose) (HPC) 96 % of control | [19] 92 % of control

CC(C)(C)C1CCCC(=O)CC1 (configuration not stated)
inactive: [20] 102 % of control

Cc1nccn1C
inactive: [9] 101 % of control | [10] 90 % of control | [11] 92 % of control

CCCCSC1=NCCCS1
inactive: dose: 75.0 mg/kg/injection, schedule: Q01DX001 (ip), vehicle: other 104 % of control | dose: 150.0 mg/kg/injection, schedule: Q01DX001 (ip), vehicle: other 111 % of control | dose: 300.0 mg/kg/injection, schedule: Q01DX001 (ip), vehicle: other 102 % of control

c1ccc(CN2CCN(Cc3ccccc3)C2c2ccccc2)cc1
inactive: [1] 97 % of control | [2] 103 % of control | [3] 106 % of control | [5] 105 % of control | [7] 106 % of control

COc1ccc2c(c1O)C1(CCN(C)C)CC(=O)CCC1C=C2 (configuration not stated)
inactive: dose: 75.0 mg/kg/injection, schedule: Q01DX001 (ip), vehicle: saline 96 % of control | dose: 150.0 mg/kg/injection, schedule: Q01DX001 (ip), vehicle: saline 100 % of control | dose: 300.0 mg/kg/injection, schedule: Q01DX001 (ip), vehicle: saline 89 % of control

O=S1OCC2(CO1)COS(=O)OC2 (configuration not stated)
inactive: dose: 1.56 mg/kg/injection, schedule: Q01DX009 (ip), vehicle: saline 103 % of control | dose: 1.56 mg/kg/injection, schedule: Q04DX003 (ip), vehicle: saline 95 % of control | dose: 3.12 mg/kg/injection, schedule: Q01DX009 (ip), vehicle: saline 98 % of control | dose: 3.12 mg/kg/injection, schedule: Q04DX003 (ip), vehicle: saline 101 % of control | dose: 6.25 mg/kg/injection, schedule: Q04DX003 (ip), vehicle: saline 104 % of control

COc1ccc2c(c1)CC(=CO)CC2=O.COc1ccc2c(c1)CC/C(=C/O)C2=O.[Cu]
inactive: [3] 98 % of control | dose: 100.0 mg/kg/injection, schedule: Q04DX003 (ip), vehicle: saline sonified 101 % of control | [5] 110 % of control | dose: 200.0 mg/kg/injection, schedule: Q04DX003 (ip), vehicle: saline sonified 90 % of control | dose: 400.0 mg/kg/injection, schedule: Q04DX003 (ip), vehicle: saline sonified 104 % of control

CCCCCCCCCCCCCCCCCCC[As](=O)(O)CCCCCCCCCCCCCCCCCCC
inactive: [20] 97 % of control | [9] 89 % of control | [10] 95 % of control | [11] 91 % of control

COC(=O)NC1CCCCC1I (configuration not stated)
inactive: [3] 89 % of control | [12] 95 % of control | [5] 101 % of control | [13] 98 % of control | [7] 96 % of control | [14] 93 % of control

O=C(Cc1ccccc1)c1ccccn1
inactive: dose: 100.0 mg/kg/injection, schedule: Q01DX001 (ip), vehicle: other 95 % of control | dose: 200.0 mg/kg/injection, schedule: Q01DX001 (ip), vehicle: other 98 % of control | dose: 400.0 mg/kg/injection, schedule: Q01DX001 (ip), vehicle: other 101 % of control

CSc1n[nH]c(Cl)n1
inactive: dose: 25.0 mg/kg/injection, schedule: Q04DX002 (ip), vehicle: saline with Tween-80 98 % of control and 103 % of control | dose: 50.0 mg/kg/injection, schedule: Q04DX002 (ip), vehicle: saline with Tween-80 102 % of control and 106 % of control | dose: 100.0 mg/kg/injection, schedule: Q04DX002 (ip), vehicle: saline with Tween-80 103 % of control and 107 % of control and 114 % of control | dose: 200.0 mg/kg/injection, schedule: Q04DX002 (ip), vehicle: saline with Tween-80 104 % of control and 113 % of control and 90 % of control | dose: 400.0 mg/kg/injection, schedule: Q04DX002 (ip), vehicle: saline with Tween-80 93 % of control
